Laboratory results from patent publication US20230330254A1 (Regeneron Pharmaceuticals, Inc., priority 2022, published 2023).
Values belong to the molecule of their own block, whether it stands above or below them. Where a SMILES comes first, the peptide text is derived from it. [ ]: non-standard residue; d: D form. The star is where a group is joined. Bip(2'-Et,4'-O(CH2)4NH2) = CCc1cc(OCCCCN)ccc1-c1ccc(C[C@H](N)C(=O)O)cc1; Nva(5-(3,5-Me2Ph)) = Cc1cc(C)cc(CCC[C@H](N)C(=O)O)c1; Ala(1H-tetrazol-5-yl) = N[C@@H](Cc1nnn[nH]1)C(=O)O; αMePhe(2-F) = C[C@](N)(Cc1ccccc1F)C(=O)O; X9 = O=C([C@@H]1CCN(CCc2cnc[nH]2)C1)*; X8 = O=C([C@H]1CCN(CCc2cnc[nH]2)C1)*

How the values were obtained:
[1] = target: T1, human GLP1R (Homo sapiens, UniProt P43220); experiment: Human GLP1R cAMP accumulation assay; type: cell-based; set-up: HEK293 cells over-expressing full length human GLP-1R were utilized; expressed in transfected cells; host or cells: HEK293 (HEK293/hGLP1R)
T1 sequence (P43220 24-463): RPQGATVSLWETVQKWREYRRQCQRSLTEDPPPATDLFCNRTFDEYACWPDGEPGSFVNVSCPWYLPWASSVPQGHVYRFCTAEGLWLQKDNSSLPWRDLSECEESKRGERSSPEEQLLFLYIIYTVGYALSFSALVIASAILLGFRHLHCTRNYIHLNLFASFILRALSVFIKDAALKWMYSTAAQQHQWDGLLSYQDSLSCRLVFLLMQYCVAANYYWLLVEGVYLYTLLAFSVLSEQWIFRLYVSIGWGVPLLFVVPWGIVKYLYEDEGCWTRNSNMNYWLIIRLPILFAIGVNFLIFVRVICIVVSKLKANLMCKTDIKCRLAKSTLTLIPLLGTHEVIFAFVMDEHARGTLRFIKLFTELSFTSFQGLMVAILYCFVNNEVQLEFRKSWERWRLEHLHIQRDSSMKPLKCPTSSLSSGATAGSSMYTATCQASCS
Experimental: 8.1 Human GLP1R cAMP Accumulation Assay (Cyclic AMP Determination)
The functional activity of the test compounds for agonizing GLP1R were evaluated using a cell-based assay. For the assay, HEK293 cells over-expressing full length human GLP-1R were utilized and the downstream cAMP accumulation was assessed as a measure of human GLP-1R stimulation. […] Diluted compounds were transferred to OptiPlates (100 nL/well) using an Echo liquid handler. HEK293/hGLP1R cells were thawed in 37° C. water-bath, washed 2 times with HBSS and re-suspended in assay buffer (HBSS+5 mM HEPES+500 μM IBMX+0.1% BSA). […] After centrifugation, the assay plate was incubated at 23° C. for 30 min. The reaction was terminated by adding 10 μL of lysis buffer containing D2-cAMP and a cAMP-antibody from the cyclic AMP immunoassay kit (Cisbio, Cat #62AM4PEJ). […] The levels of cAMP per well were calculated using a standard curve generated by GraphPad Prism. Percent activity was calculated according to the formula (% Activity=100%*(cAMP level-LC)/(HC-LC)). EC50 values were fitted from a four-parameter logistic equation over a 10-point response curve (GraphPad Prism).

[2] = tested on: HEK293/CRE-Luc cells; experiment: Luciferase reporter assay, HEK293/CRE-Luc cells without GLP1R (Example 17); type: cell-based, human; conditions: HEK293/CRE-Luc cells without hGLP1R, payloads and linker-payloads; for EC50: read-out: EC50
Source text: (§1) To test the activity of GLP1R agonist payloads, GLP1R agonist linker-payloads (LPs), and anti-GLP1R antibody tethered drug conjugates (ATDCs) of the invention, a cell-based cAMP responsive luciferase reporter assay was developed. To generate the assay cell line, the firefly luciferase gene was placed under the control of a cAMP response element (CRE) located upstream of a minimal promoter and transfected into HEK293 cells and referred to herein as HEK293/CRE-Luc cells.
(§2) Three-fold serial dilutions of free payloads or LPs were prepared in 100% DMSO, transferred to fresh assay media, and added to the cells at a final constant DMSO concentration of 0.2%. The last well in the plate served as a blank control containing only the assay media and 0.2% DMSO (untreated well) and was plotted as a continuation of the 3-fold serial dilution. Four to six hours later, luciferase activity was determined after the addition of One-Glo™ reagent (Promega, Cat #E6130) to each well. Relative light units (RLUs) were measured on an Envision luminometer (PerkinElmer) and EC50 values were determined using a four-parameter logistic equation over a 12-point dose response curve (GraphPad Prism). The signal to noise (S/N) was determined by taking the ratio of the highest RLU on the dose response curve to the RLU in the untreated wells. Data was generated across several experiments (A-E) with M2361 serving as a reference standard in each experiment to calculate the payload relative potency ((M2361 EC50/payload EC50)*100)) and relative S/N ((payload SN/M2361 SN)*100)).

[3] = target: T1, human GLP1R; experiment: Luciferase reporter assay, HEK293/CRE-Luc/hGLP1R (Example 17); type: cell-based; set-up: engineered to express full-length human GLP1R, cynomolgus GLP1R; expressed in transfected cells; host or cells: HEK293/CRE-Luc; conditions: HEK293/CRE-Luc/hGLP1R; for S/N: highest RLU / RLU of untreated wells; for EC50: payloads and linker-payloads, experiments A-E, M2361 repeated in each, read-out: EC50; for Relative Potency (% M2361 EC50) / Relative Signal:Noise (% M2361): relative to M2361 of the same experiment
Source text: as §1, §2

[4] = HEK293/hGLP1R cells, Table 4, read-out: cAMP EC50

- EC50 [1, 4]: 0.314 nM
Compound: CCc1cc(OCCCCNC(=O)CNC(=O)CNC(=O)CNC(=O)CNC(=O)[C@H](CO[C@@H]2OC(CO)[C@@H](O)C(O)C2O)NC(=O)CCC(=O)N2Cc3ccccc3C#Cc3ccccc32)ccc1-c1ccc(C[C@H](NC(=O)[C@H](CC(=O)O)NC(=O)[C@H](CO)NC(=O)[C@@H](NC(=O)[C@](C)(Cc2ccccc2F)NC(=O)[C@@H](NC(=O)CNC(=O)[C@H](Cc2nn[nH]n2)NC(=O)C(C)(C)C(=O)NCCc2cnc[nH]2)[C@@H](C)O)[C@@H](C)O)C(=O)N[C@@H](CCCc2cc(C)cc(C)c2)C(N)=O)cc1 (some centres unmarked) [LP20, DIBAC-suc-(glucose) SG4-P9]

- EC50 [1, 4]: 0.558 nM
Compound: CCc1cc(OCCCCNC(=O)[C@@H](CO)NC(=O)CNC(=O)CNC(=O)CNC(=O)CNC(=O)COC2C#CCCCCC2)ccc1-c1ccc(C[C@H](NC(=O)[C@H](CC(=O)O)NC(=O)[C@H](CO)NC(=O)[C@@H](NC(=O)C(C)(Cc2ccccc2F)NC(=O)[C@@H](NC(=O)CNC(=O)[C@H](Cc2nn[nH]n2)NC(=O)C(C)(C)C(=O)NCCc2cnc[nH]2)[C@@H](C)O)[C@@H](C)O)C(=O)N[C@@H](CCCc2cc(C)cc(C)c2)C(N)=O)cc1 (stereo partly drawn) [LP19, COT-G4-(R)Ser-P9]

- EC50 [1, 4]: 0.412 nM
Compound: CCc1cc(OCCCCn2cc(COCCOCCOCCOCCNC(=O)CCC(=O)N3Cc4ccccc4C#Cc4ccccc43)nn2)ccc1-c1ccc(C[C@H](NC(=O)[C@H](CC(=O)O)NC(=O)[C@H](CO)NC(=O)[C@@H](NC(=O)[C@](C)(Cc2ccccc2F)NC(=O)[C@@H](NC(=O)CNC(=O)[C@H](Cc2nn[nH]n2)NC(=O)C(C)(C)C(=O)NCCc2cnc[nH]2)[C@@H](C)O)[C@@H](C)O)C(=O)N[C@@H](CCCc2cc(C)cc(C)c2)C(N)=O)cc1 [LP8, DIBAC-suc-PEG4-triazole-P8]

Continued, molecule first:

Compound: CCc1cc(OCCCCN)ccc1-c1ccc(C[C@H](NC(=O)[C@H](CC(=O)O)NC(=O)[C@H](CO)NC(=O)[C@@H](NC(=O)[C@](C)(Cc2ccccc2F)NC(=O)[C@@H](NC(=O)CNC(=O)[C@H](Cc2nn[nH]n2)NC(=O)[C@@H]2CCN(CCc3cnc[nH]3)C2)[C@@H](C)O)[C@@H](C)O)C(=O)N[C@@H](CCCc2cc(C)cc(C)c2)C(N)=O)cc1 [P17-R] (X9-[Ala(1H-tetrazol-5-yl)]GT[αMePhe(2-F)]TSD[Bip(2'-Et,4'-O(CH2)4NH2)][Nva(5-(3,5-Me2Ph))]-NH2)
- EC50 [1, 4]: 11.2 nM

Compound: CCc1cc(OCCCCNC(=O)CCOCCOCCOCCOCCOCCOCCOCCOCCOCCOCCOCCOCCOCCOCCOCCOCCOCCOCCOCCOCCOCCOCCOCCOCCNC(=O)CCC(=O)N2Cc3ccccc3-c3nnn(CC4OC5OC6C(CO)OC(OC7C(CO)OC(OC8C(CO)OC(OC9C(CO)OC(OC%10C(CO)OC(OC4C(O)C5O)C(O)C%10O)C(O)C9O)C(O)C8O)C(O)C7O)C(O)C6O)c3-c3ccccc32)ccc1-c1ccc(C[C@H](NC(=O)[C@H](CC(=O)O)NC(=O)[C@H](CO)NC(=O)[C@@H](NC(=O)[C@](C)(Cc2ccccc2F)NC(=O)[C@@H](NC(=O)CNC(=O)[C@H](Cc2nn[nH]n2)NC(=O)C(C)(C)C(=O)NCCc2cnc[nH]2)[C@@H](C)O)[C@@H](C)O)C(=O)N[C@@H](CCCc2cc(C)cc(C)c2)C(N)=O)cc1 (some centres unmarked) [LP22, cyclo-dex-trin-triazole-DIBAC-suc-PEG24-P9]
- EC50 [1]: 2.71 nM

Compound: CCc1cc(OCCCCNC(=O)CNC(=O)CNC(=O)CNC(=O)CNC(=O)[C@H](CO)NC(=O)CCC(=O)N2Cc3ccccc3C#Cc3ccccc32)ccc1-c1ccc(C[C@H](NC(=O)[C@H](CC(=O)O)NC(=O)[C@H](CO)NC(=O)[C@@H](NC(=O)[C@](C)(Cc2ccccc2F)NC(=O)[C@@H](NC(=O)CNC(=O)[C@H](Cc2nn[nH]n2)NC(=O)C(C)(C)C(=O)NCCc2cnc[nH]2)[C@@H](C)O)[C@@H](C)O)C(=O)N[C@@H](CCCc2cc(C)cc(C)c2)C(=O)Nc2ccccc2)cc1 [LP16, DIBAC-suc-SG4-P23]
- EC50 [1, 4]: 1.04 nM

Compound: CCc1cc(OCCCCN)ccc1-c1ccc(C[C@H](NC(=O)[C@H](CC(=O)O)NC(=O)[C@H](CO)NC(=O)[C@@H](NC(=O)[C@](C)(Cc2ccccc2F)NC(=O)[C@@H](NC(=O)CNC(=O)[C@H](Cc2nn[nH]n2)NC(=O)[C@H]2CCN(CCc3cnc[nH]3)C2)[C@@H](C)O)[C@@H](C)O)C(=O)N[C@@H](CCCc2cc(C)cc(C)c2)C(N)=O)cc1 [P16] (X8-[Ala(1H-tetrazol-5-yl)]GT[αMePhe(2-F)]TSD[Bip(2'-Et,4'-O(CH2)4NH2)][Nva(5-(3,5-Me2Ph))]-NH2)
- S/N [2]: 1.1
- EC50 [2]: > 200 nM
- S/N [3]: 55.1
- EC50 [3]: 0.217 nM
- Relative Potency (% M2361 EC50) [3]: 2.5%
- Relative Signal:Noise (% M2361) [3]: 83.8%

Compound: CCc1cc(OCCCCN)ccc1-c1ccc(C[C@H](NC(=O)[C@H](CC(=O)O)NC(=O)[C@H](CO)NC(=O)[C@@H](NC(=O)[C@](C)(Cc2ccccc2F)NC(=O)[C@@H](NC(=O)CNC(=O)[C@H](Cc2nn[nH]n2)NC(=O)[C@@]2(C)CCN(CCc3cnc[nH]3)C2=O)[C@@H](C)O)[C@@H](C)O)C(=O)N[C@@H](CCCc2cc(C)cc(C)c2)C(N)=O)cc1 [P15]
- S/N [2]: 1.1
- EC50 [2]: > 200 nM
- S/N [3]: 67.8
- Relative Potency (% M2361 EC50) [3]: 40.3%
- Relative Signal:Noise (% M2361) [3]: 103.1%

Compound: CCc1cc(OCCCCN)ccc1-c1ccc(C[C@H](NC(=O)[C@H](CC(=O)O)NC(=O)[C@H](CO)NC(=O)[C@@H](NC(=O)[C@](C)(Cc2ccccc2F)NC(=O)[C@@H](NC(=O)CNC(=O)[C@@H](N)CCC(N)=O)[C@@H](C)O)[C@@H](C)O)C(=O)N[C@@H](CCCc2cc(C)cc(C)c2)C(N)=O)cc1 [P20, (3S)-4-[[(1S)-1-[[4-[4-(4-aminobutoxy)-2-ethyl-phenyl]phenyl]methyl]-2-[[(1S)-1-carbamoyl-4-(3,5-dimethylphenyl)butyl]amino]-2-oxo-ethyl]amino]-3-[[(2S)-2-[[(2S,3R)-2-[[(2S)-2-[[(2S,3R)-2-[[2-[[(2S)-2,5-diamino-5-oxopentanoyl]amino]acetyl]amino]-3-hydroxy-butanoyl]amino]-3-(2-fluorophenyl)-2-methyl-propanoyl]amino]-3-hydroxybutanoyl]amino]-3-hydroxy-propanoyl]amino]-4-oxo-butanoic acid]
- EC50 [1, 4]: 0.37 nM

Compound: CCc1cc(OCCCCN)ccc1-c1ccc(C[C@H](NC(=O)[C@H](CC(=O)O)NC(=O)[C@H](CO)NC(=O)[C@@H](NC(=O)[C@](C)(Cc2ccccc2F)NC(=O)[C@@H](NC(=O)CNC(=O)[C@H](Cc2nn[nH]n2)NC(=O)[C@H]2CCN(CCc3cnc[nH]3)C2)[C@@H](C)O)[C@@H](C)O)C(=O)N[C@@H](CCCc2cc(C)cc(C)c2)C(N)=O)cc1 [P16-S] (X8-[Ala(1H-tetrazol-5-yl)]GT[αMePhe(2-F)]TSD[Bip(2'-Et,4'-O(CH2)4NH2)][Nva(5-(3,5-Me2Ph))]-NH2)
- EC50 [1, 4]: 0.544 nM

Compound: CCc1cc(OCCCCN)ccc1-c1ccc(C[C@H](NC(=O)[C@H](CC(=O)O)NC(=O)[C@H](CO)NC(=O)[C@@H](NC(=O)[C@](C)(Cc2ccccc2F)NC(=O)[C@@H](NC(=O)CNC(=O)[C@H](Cc2nn[nH]n2)NC(=O)[C@]2(C)CCN(CCc3cnc[nH]3)C2=O)[C@@H](C)O)[C@@H](C)O)C(=O)N[C@@H](CCCc2cc(C)cc(C)c2)C(N)=O)cc1 [P14-S]
- EC50 [1, 4]: 0.727 nM

Compound: CCc1cc(OCCCCN)ccc1-c1ccc(C[C@H](NC(=O)[C@H](CC(=O)O)NC(=O)[C@H](CO)NC(=O)[C@@H](NC(=O)[C@](C)(Cc2ccccc2F)NC(=O)[C@@H](NC(=O)CNC(=O)[C@H](Cc2nn[nH]n2)NC(=O)C2(C)CCN(CCc3cnc[nH]3)C2=O)[C@@H](C)O)[C@@H](C)O)C(=O)N[C@@H](CCCc2cc(C)cc(C)c2)C(N)=O)cc1 (stereo in doubt) [P14]
- S/N [2]: 1.6
- EC50 [2]: > 200 nM
- S/N [3]: 74.9
- EC50 [3]: 0.184 nM
- Relative Potency (% M2361 EC50) [3]: 2.9%
- Relative Signal:Noise (% M2361) [3]: 113.9%
